We go through one molecule from paper doi:10.1101/2025.06.03.657755v1 (biorxiv, 2025).

In this assay the target is SINV nsP2 (Sindbis virus, UniProt P03317).
SINV nsP2, sequence (P03317 541-1347): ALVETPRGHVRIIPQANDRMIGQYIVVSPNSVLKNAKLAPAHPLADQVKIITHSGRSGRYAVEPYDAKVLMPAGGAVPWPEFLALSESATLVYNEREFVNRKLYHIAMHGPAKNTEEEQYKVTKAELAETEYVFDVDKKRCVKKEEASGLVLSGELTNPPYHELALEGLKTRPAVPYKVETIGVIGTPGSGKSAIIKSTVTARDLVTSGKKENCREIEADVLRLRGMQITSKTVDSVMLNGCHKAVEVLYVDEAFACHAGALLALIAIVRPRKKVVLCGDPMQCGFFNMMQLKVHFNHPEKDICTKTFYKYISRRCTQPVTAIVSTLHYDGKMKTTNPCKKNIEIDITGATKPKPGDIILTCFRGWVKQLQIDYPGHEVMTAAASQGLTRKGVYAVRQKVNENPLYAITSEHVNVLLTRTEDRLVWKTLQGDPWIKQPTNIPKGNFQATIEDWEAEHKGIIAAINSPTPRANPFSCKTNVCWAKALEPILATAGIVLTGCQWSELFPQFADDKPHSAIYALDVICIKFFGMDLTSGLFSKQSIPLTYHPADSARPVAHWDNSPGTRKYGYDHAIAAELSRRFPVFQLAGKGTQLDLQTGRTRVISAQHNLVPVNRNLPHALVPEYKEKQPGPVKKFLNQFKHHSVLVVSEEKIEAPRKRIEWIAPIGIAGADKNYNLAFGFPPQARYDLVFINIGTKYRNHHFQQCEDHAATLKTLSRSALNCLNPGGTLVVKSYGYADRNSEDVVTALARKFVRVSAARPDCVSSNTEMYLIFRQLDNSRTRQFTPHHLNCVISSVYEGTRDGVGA

In the case of `Nc1ncnc2c1ncn2[C@@H]1O[C@H](COP(=O)(O)OP(=O)(O)OP(=O)(O)O)[C@@H](O)[C@H]1O` [ATP], the Km result is recorded as “these additions increase the ATPase Km”.
